Measurements taken from patent US10196369B2, “Spirocyclic EBI2 modulators” (Sanford Burnham Prebys Medical Discovery Institute, priority 2013, dated 2019).

biological target: EBI2 (Homo sapiens, UniProt P32249); assay: Cell-based luminescent assay of EBI2 modulation (7a,25-OHC stimulated); conditions: 7a,25-OHC final assay concentration 80 nM, 60 minute incubation
Protocol: To assess EBI2 modulation, the compounds described herein were assayed in the following cell-based luminescent assay:
1) Plated 600 cells/well in 4 μL of assay media into columns 1-48 of a 1536-well assay plate, using a liquid dispenser.
2) Centrifuged plates at 1000 rpm for 1 minute and covered with lids.
3) Incubated overnight at 37° C., 100% relative humidity, 5% CO2.
1) Centrifuged compound plates containing compounds described herein at 500 rpm for 1 minute.
2) Added compounds into assay plate col 5-48 to final concentration 4-5 uM. Added matching amount of DMSO to positive and negative control wells in columns 1-4.
3) Dispensed 2 uL/well of assay media to columns 1-2 for the positive control wells.
4) Added 2 uL/well of 400 nM 7a,25-OHC (final assay concentration=80 nM) in assay media to columns 3-48 for the negative control and test compound wells.
5) Centrifuged plates at 1000 rpm for 1 minute and re-lid plates.
6) Incubated plates at 37° C., 100% relative humidity, 5% CO2 for 60 minutes.
7) Following 60 minute incubation, delivered 2.5 uL of Detection Reagent solution to each assay plate (Columns 1-48) using a liquid handler.
8) Centrifuged plates at 2000 rpm for 2 minutes and re-lid plates.
9) Incubated plates for 60 minutes at 25 degrees in the dark.
10) Read plates using the Viewlux, Envision or other suitable plate reader using a luminescence detection.
The experimental values were normalized by the difference between values from neutral and stimulator control wells in each plate. Then normalized data was corrected to remove systematic plate patterns due to artifacts such as dispensing tip issues etc.

Chain of EBI2 (P32249 whole entry): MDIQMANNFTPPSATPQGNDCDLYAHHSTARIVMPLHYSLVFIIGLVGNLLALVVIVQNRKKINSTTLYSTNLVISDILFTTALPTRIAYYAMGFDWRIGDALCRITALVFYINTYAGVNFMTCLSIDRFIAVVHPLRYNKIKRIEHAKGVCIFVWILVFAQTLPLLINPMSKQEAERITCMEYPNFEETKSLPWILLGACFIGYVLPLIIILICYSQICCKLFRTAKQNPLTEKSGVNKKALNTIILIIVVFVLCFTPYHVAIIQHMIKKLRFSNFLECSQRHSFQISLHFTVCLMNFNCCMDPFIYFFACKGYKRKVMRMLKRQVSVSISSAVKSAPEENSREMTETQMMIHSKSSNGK

First: O=C(c1cc2cc(Br)ccc2[nH]1)N1CC2(CCN(Cc3ccc(Cl)cc3)CC2)C1 [Compound C49, 5-bromoindol-2-yl 7-[(4-chlorophenyl)methyl]-2,7-diazaspiro[3.5]non-2-yl ketone]
Second: O=C(c1cc2cc(Cl)ccc2[nH]1)N1CCC2(CC1)CN(Cc1ccc(C(F)(F)F)cc1)C2 [Compound C15, 5-chloroindol-2-yl 2-{[4-(trifluoromethyl)phenyl]methyl}-2,7-diazaspiro[3.5]non-7-yl ketone]
The IC50 of the first is higher: 500 to 5000 nM for the first, 100 to 500 nM for the second. The second is the more potent here.

First: O=C(c1ccc(F)cc1)N1CCC2(CC1)CN(C(=O)c1cc3cc(Br)ccc3[nH]1)C2 [Compound C47, 5-bromoindol-2-yl 7-[(4-fluorophenyl)carbonyl]-2,7-diazaspiro[3.5]non-2-yl ketone]
Second: O=C(c1ccc(F)cc1)N1CCC2(CC1)CN(C(=O)c1cc3ccc(Cl)cc3[nH]1)C2 [Compound C55, 6-chloroindol-2-yl 7-[(4-fluorophenyl)carbonyl]-2,7-diazaspiro[3.5]non-2-yl ketone]
The IC50 of the first is lower: 100 to 500 nM for the first, 500 to 5000 nM for the second.

`O=C(C#Cc1ccc(Cl)cc1)N1CC2(CCN(C(=O)c3ccc(F)cc3)CC2)C1` [Compound C3, 3-(4-chlorophenyl)-1-{7-[(4-fluorophenyl)carbonyl]-2,7-diazaspiro[3.5]non-2-yl}prop-2-yn-1-one] and `O=C(C#Cc1ccc(F)cc1)N1CC2(CCN(C(=O)c3ccc(Cl)cc3)CC2)C1` [Compound C94, 1-{7-[(4-chlorophenyl)carbonyl]-2,7-diazaspiro[3.5]non-2-yl}-3-(4-fluorophenyl)prop-2-yn-1-one] fall in the same range of IC50: 100 to 500 nM for the first, 100 to 500 nM for the second.

`O=C(/C=C/c1ccc(Cl)c(Cl)c1)N1CC2(CCN(C(=O)c3ccc(C(F)(F)F)cc3)CC2)C1` [Compound C30, (2E)-3-(3,4-dichlorophenyl)-1-(7-{[4-(trifluoromethyl)phenyl]carbonyl}-2,7-diazaspiro[3.5]non-2-yl)prop-2-en-1-one] and `O=C(/C=C/c1ccc(Br)cc1)N1CC2(CCN(C(=O)c3ccc(F)cc3C(F)(F)F)CC2)C1` [Compound C45, (2E)-3-(4-bromophenyl)-1-(7-{[4-fluoro-2-(trifluoromethyl)phenyl]carbonyl}-2,7-diazaspiro[3.5]non-2-yl)prop-2-en-1-one] cannot be ordered by IC50: < 100 nM for the first, < 100 nM for the second.

`O=C(C#Cc1ccc(Br)cc1)N1CCC2(CC1)CN(Cc1ccc(Cl)cc1)C2` [Compound C69, 3-(4-bromophenyl)-1-{2-[(4-chlorophenyl)methyl]-2,7-diazaspiro[3.5]non-7-yl}prop-2-yn-1-one] and `O=C(C#Cc1ccc(Cl)cc1)N1CCC2(CC1)CN(Cc1ccc(Cl)cc1)C2` [Compound C82, 3-(4-chlorophenyl)-1-{2-[(4-chlorophenyl)methyl]-2,7-diazaspiro[3.5]non-7-yl}prop-2-yn-1-one] cannot be ordered by IC50: < 100 nM for the first, < 100 nM for the second.

`O=C(/C=C/c1ccc(Br)cc1)N1CCC2(CC1)CN(Cc1ccc(F)cc1)C2` [Compound C8, (2E)-3-(4-bromophenyl)-1-{2-[(4-fluorophenyl)methyl]-2,7-diazaspiro[3.5]non-7-yl}prop-2-en-1-one] and `O=C(/C=C/c1ccc(Br)cc1)N1CCC2(CC1)CN(Cc1c(Cl)cccc1Cl)C2` [Compound C11, (2E)-1-{2-[(2,6-dichlorophenyl)methyl]-2,7-diazaspiro[3.5]non-7-yl}-3-(4-bromophenyl)prop-2-en-1-one] cannot be ordered by IC50: < 100 nM for the first, < 100 nM for the second.

`O=C(C#Cc1ccc(Cl)cc1)N1CC2(CCN(C(=O)c3ccc(C(F)(F)F)cc3)CC2)C1` [Compound C80, 3-(4-chlorophenyl)-1-(7-{[4-(trifluoromethyl)phenyl]carbonyl}-2,7-diazaspiro[3.5]non-2-yl)prop-2-yn-1-one] and `O=C(C#Cc1ccc(F)cc1)N1CC2(CCN(C(=O)c3ccc(C(F)(F)F)cc3)CC2)C1` [Compound C96, 3-(4-fluorophenyl)-1-(7-{[4-(trifluoromethyl)phenyl]carbonyl}-2,7-diazaspiro[3.5]non-2-yl)prop-2-yn-1-one] cannot be ordered by IC50: < 100 nM for the first, < 100 nM for the second.

First: O=C(c1ccc(-c2nnn[nH]2)cc1)N1CCC2(CC1)CN(C(=O)c1cc3cc(Cl)ccc3[nH]1)C2 [Compound C42, 5-chloroindol-2-yl 7-[(4-(1H-1,2,3,4-tetraazol-5-yl)phenyl)carbonyl]-2,7-diazaspiro[3.5]non-2-yl ketone]
Second: O=C(c1ccc(B(O)O)cc1)N1CCC2(CC1)CN(C(=O)c1cc3cc(Cl)ccc3[nH]1)C2 [Compound C37, 4-(2-(5-chloro-1H-indole-2-carbonyl)-2,7-diazaspiro[3.5]nonane-7-carbonyl)phenylboronic acid]
The IC50 of the first is higher: 500 to 5000 nM for the first, 100 to 500 nM for the second.

Compared with `O=C(C#Cc1ccc(Br)cc1)N1CCC2(CC1)CN(C(=O)c1ccc(C(F)(F)F)cc1)C2` [Compound C71, 3-(4-bromophenyl)-1-(2-{[4-(trifluoromethyl)phenyl]carbonyl}-2,7-diazaspiro[3.5]non-7-yl)prop-2-yn-1-one], `O=C(C#Cc1ccc(Br)cc1)N1CCC2(CC1)CN(C(=O)c1ccc(F)cc1)C2` [Compound C67, 3-(4-bromophenyl)-1-{2-[(4-fluorophenyl)carbonyl]-2,7-diazaspiro[3.5]non-7-yl}prop-2-yn-1-one] is higher in IC50: < 100 nM for the first, 500 to 5000 nM for the second. The first is the more potent here.

First: O=C(c1ccc(C(F)(F)F)c(F)c1)N1CCC2(CC1)CCN(C(=O)c1cc3cc(Cl)ccc3[nH]1)CC2 [Compound C100, 5-chloroindol-2-yl 9-{[3-fluoro-4-(trifluoromethyl)phenyl]carbonyl}-3,9-diazaspiro[5.5]undec-3-yl ketone]
Second: O=C(c1ccc(C(F)(F)F)c(F)c1)N1CC2(CCN(C(=O)c3cc4cc(Cl)ccc4[nH]3)CC2)C1 [Compound C13, 5-chloroindol-2-yl 2-{[3-fluoro-4-(trifluoromethyl)phenyl]carbonyl}-2,7-diazaspiro[3.5]non-7-yl ketone]
The IC50 of the first is lower: < 100 nM for the first, 100 to 500 nM for the second. The first is the more potent here.

`O=C(/C=C/c1ccc(Br)cc1)N1CCC2(CC1)CN(C(=O)c1ccc(Cl)cc1)C2` [Compound L1, (2E)-3-(4-bromophenyl)-1-{2-[(4-chlorophenyl)carbonyl]-2,7-diazaspiro[3.5]non-7-yl}prop-2-en-1-one] and `O=C(/C=C/c1ccc(Br)cc1)N1CC2(CCN(C(=O)c3cccc(Br)c3)CC2)C1` [Compound C2, (2E)-3-(4-bromophenyl)-1-{7-[(3-bromophenyl)carbonyl]-2,7-diazaspiro[3.5]non-2-yl}prop-2-en-1-one] cannot be ordered by IC50: < 100 nM for the first, < 100 nM for the second.

First: O=C(C#Cc1ccc2c(c1)OCO2)N1CCC2(CC1)CN(C(=O)c1ccc(Br)cc1)C2 [Compound I1, 3-(2H-benzo[3,4-d]1,3-dioxolen-5-yl)-1-{2-[(4-bromophenyl)carbonyl]-2,7-diazaspiro[3.5]non-7-yl}prop-2-yn-1-one]
Second: O=C(C#Cc1ccc(F)cc1)N1CCC2(CC1)CN(C(=O)c1ccc(Br)cc1)C2 [Compound C99, 1-{2-[(4-bromophenyl)carbonyl]-2,7-diazaspiro[3.5]non-7-yl}-3-(4-fluorophenyl)prop-2-yn-1-one]
The IC50 of the first is higher: 500 to 5000 nM for the first, 100 to 500 nM for the second.

First: O=C(c1cc2cc(Br)ccc2[nH]1)N1CC2(CCN(Cc3ccc(F)cc3C(F)(F)F)CC2)C1 [Compound C60, 5-bromoindol-2-yl 7-{[4-fluoro-2-(trifluoromethyl)phenyl]methyl}-2,7-diazaspiro[3.5]non-2-yl ketone]
Second: O=C(c1cc2ccc(Br)cc2[nH]1)N1CC2(CCN(C(=O)c3ccc(F)cc3C(F)(F)F)CC2)C1 [Compound C61, 6-bromoindol-2-yl 7-{[4-fluoro-2-(trifluoromethyl)phenyl]carbonyl}-2,7-diazaspiro[3.5]non-2-yl ketone]
The IC50 of the first is higher: 500 to 5000 nM for the first, 100 to 500 nM for the second.

First: COc1ccc(C(=O)N2CCC3(CC2)CN(C(=O)C#Cc2ccc(Cl)cc2)C3)cc1 [Compound C91, 3-(4-chlorophenyl)-1-{7-[(4-methoxyphenyl)carbonyl]-2,7-diazaspiro[3.5]non-2-yl}prop-2-yn-1-one]
Second: O=C(C#Cc1ccc(Cl)cc1)N1CC2(CCN(Cc3ccc(F)cc3)CC2)C1 [Compound C81, 3-(4-chlorophenyl)-1-{7-[(4-fluorophenyl)methyl]-2,7-diazaspiro[3.5]non-2-yl}prop-2-yn-1-one]
The IC50 of the first is lower: < 100 nM for the first, 100 to 500 nM for the second.

`COc1ccc(C(=O)N2CC3(CCN(C(=O)/C=C/c4ccc(Br)cc4)CC3)C2)cc1OC` [Compound C9, (2E)-1-{2-[(3,4-dimethoxyphenyl)carbonyl]-2,7-diazaspiro[3.5]non-7-yl}-3-(4-bromophenyl)prop-2-en-1-one] and `O=C(/C=C/c1ccc(Br)cc1)N1CC2(CCN(C(=O)c3cc(F)cc(F)c3)CC2)C1` [Compound C44, (2E)-1-{7-[(3,5-difluorophenyl)carbonyl]-2,7-diazaspiro[3.5]non-2-yl}-3-(4-bromophenyl)prop-2-en-1-one] cannot be ordered by IC50: < 100 nM for the first, < 100 nM for the second.

`O=C(/C=C/c1ccc(Cl)c(Cl)c1)N1CC2(CCN(Cc3ccc(Cl)cc3)CC2)C1` [Compound C33, (2E)-3-(3,4-dichlorophenyl)-1-{7-[(4-chlorophenyl)methyl]-2,7-diazaspiro[3.5]non-2-yl}prop-2-en-1-one] and `O=C(c1cc2cc(Cl)ccc2[nH]1)N1CCC2(CC1)CN(Cc1ccc(C(F)(F)F)c(F)c1)C2` [Compound C14, 5-chloroindol-2-yl 2-{[3-fluoro-4-(trifluoromethyl)phenyl]methyl}-2,7-diazaspiro[3.5]non-7-yl ketone] fall in the same range of IC50: 100 to 500 nM for the first, 100 to 500 nM for the second.
